#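 48-hour exposure; five concentrations; linearly interpolated endpoints. Here, GI50 denotes the concentration required for 50% inhibition of growth. TGI denotes the concentration required for complete inhibition of growth.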
# Columns and labels:
# Experiment in all cases: growth of human tumour cells (NCI), 48 h
# [1] = test system: COLO 205 colon
# [2] = test system: HCT-116 colon
# [3] = test system: HL-60(TB) leukemia
# [4] = test system: HT29 colon
# [5] = test system: NCI-H460 lung
# [6] = test system: NCI-H522 lung
# [7] = test system: SF-268 CNS
# [8] = test system: SK-MEL-5 melanoma
# [9] = test system: SNB-75 CNS
# [10] = test system: UO-31 renal
smiles,measurement,setting,value
COc1cc(C2c3cc4c(cc3[C@@H](Nc3ccc(N5CCOCC5)cc3)C3COC(=O)[C@H]23)OCO4)cc(OC)c1O (some centres not stated),TGI,[1],4.94 µM
same,TGI,[2],13.7 µM
same,TGI,[3],0.376 µM
same,TGI,[4],4.58 µM
same,TGI,[5],1.14 µM
same,TGI,[6],3.4 µM
same,TGI,[7],14.2 µM
same,TGI,[8],2.45 µM
same,TGI,[9],78.2 µM
same,TGI,[10],5.16 µM
N/C(=N\N=C/c1cc(Cl)cc(Cl)c1O)NO,TGI,[1],> 43.7 µM
same,TGI,[2],12.3 µM
same,TGI,[3],0.694 µM
same,TGI,[4],> 62.7 µM
same,TGI,[5],14.2 µM
same,TGI,[7],> 100 µM
same,TGI,[8],12.5 µM
same,TGI,[9],9.58 µM
same,TGI,[10],13.7 µM
Cn1nc2ccc3nccc(NCCNCCCl)c3c2n1,TGI,[1],> 100 µM
same,TGI,[2],> 100 µM
same,TGI,[3],> 100 µM
same,TGI,[4],> 100 µM
same,TGI,[5],> 100 µM
same,TGI,[6],> 100 µM
same,TGI,[7],> 100 µM
same,TGI,[9],> 100 µM
same,TGI,[10],> 100 µM
CCOC(=O)C1CCn2c(nc3c(=O)n(C)c(=O)n(C)c32)S1 (configuration not stated),TGI,[2],> 100 µM
same,TGI,[3],> 100 µM
same,TGI,[4],> 100 µM
same,TGI,[5],> 100 µM
same,TGI,[6],> 100 µM
same,TGI,[7],> 100 µM
same,TGI,[8],> 100 µM
same,TGI,[9],> 100 µM
CC1=NN(C(=O)c2ccccc2)C(=O)C1N=Nc1ccccc1C(=O)O (configuration not stated),TGI,[1],> 100 µM
same,TGI,[2],> 100 µM
same,TGI,[3],> 33.2 µM
same,TGI,[4],> 100 µM
same,TGI,[5],> 100 µM
same,TGI,[6],38 µM
same,TGI,[7],> 100 µM
same,TGI,[8],> 100 µM
same,TGI,[9],> 20.7 µM
same,TGI,[10],21.8 µM
CCNC(=O)CCCCC(=O)c1c(C)[nH]c(/C=C2\N=C(c3ccc[nH]3)C=C2OC)c1C,GI50,[1],1970 nM
same,TGI,[1],3.65 µM
same,GI50,[2],2330 nM
same,TGI,[2],23.6 µM
same,GI50,[3],2060 nM
same,TGI,[3],5.41 µM
same,GI50,[4],2340 nM
same,TGI,[4],7.68 µM
same,GI50,[5],1950 nM
same,TGI,[5],4.19 µM
same,GI50,[6],2200 nM
same,TGI,[6],5.48 µM
same,GI50,[7],2410 nM
same,TGI,[7],6.52 µM
same,GI50,[8],11.7 µM
same,TGI,[8],24.9 µM
same,GI50,[9],3260 nM
same,TGI,[9],24.4 µM
same,GI50,[10],2030 nM
same,TGI,[10],4.51 µM
O=C(/C=C\c1ccc(OCCCCCC[P+](c2ccccc2)(c2ccccc2)c2ccccc2)cc1)c1ccc2c(c1)OCCO2,GI50,[3],326 nM
same,TGI,[3],1.3 µM
same,GI50,[4],912 nM
same,TGI,[4],3.24 µM
same,GI50,[5],1010 nM
same,TGI,[5],2.5 µM
same,GI50,[6],885 nM
same,TGI,[6],4.42 µM
same,GI50,[7],585 nM
same,TGI,[7],3.19 µM
same,GI50,[9],623 nM
same,TGI,[9],2.72 µM
same,GI50,[10],1520 nM
same,TGI,[10],3.2 µM
O=C(O)C1C2CCC(C2)C1c1ccccc1 (configuration not stated),TGI,[1],> 100 µM
same,TGI,[2],> 100 µM
same,TGI,[3],> 100 µM
same,TGI,[4],> 100 µM
same,TGI,[5],> 100 µM
same,TGI,[6],> 100 µM
same,TGI,[7],> 100 µM
same,TGI,[8],> 100 µM
same,TGI,[9],> 100 µM
same,TGI,[10],> 100 µM
CN(C)S(=O)(=O)c1cccc(-c2nc3sc4c(c3c(=O)[nH]2)CCCC4)c1,GI50,[1],> 100000 nM
same,TGI,[1],> 100 µM
same,GI50,[5],931 nM
same,TGI,[5],> 100 µM
same,GI50,[6],> 100000 nM
same,TGI,[6],> 100 µM
same,GI50,[7],3240 nM
same,TGI,[7],> 100 µM
same,GI50,[8],> 100 µM
same,TGI,[8],> 100 µM
COC(=O)C[C@](O)(CCC(C)(C)O)C(=O)O[C@@H]1C(OC)=C[C@]23CCCN2CCc2cc4c(cc2[C@H]13)OCO4,TGI,[1],0.255 µM
same,TGI,[2],0.15 µM
same,TGI,[3],0.743 µM
same,TGI,[4],1.06 µM
same,TGI,[5],0.0793 µM
same,TGI,[6],0.0597 µM
same,TGI,[7],0.496 µM
same,TGI,[8],0.202 µM
same,TGI,[9],0.95 µM
same,TGI,[10],7.01 µM
Cc1cc(C)c(N)c(C)c1N,TGI,[1],> 100 µM
same,TGI,[2],> 100 µM
same,TGI,[3],> 100 µM
same,TGI,[5],> 100 µM
same,TGI,[6],> 100 µM
same,TGI,[7],> 100 µM
same,TGI,[8],> 100 µM
same,TGI,[10],> 100 µM
CCOC(=O)CCc1c(C)c2c(O)cc(O)cc2oc1=O,TGI,[1],> 100 µM
same,TGI,[2],> 100 µM
same,TGI,[3],> 100 µM
same,TGI,[4],> 100 µM
same,TGI,[5],> 100 µM
same,TGI,[6],> 100 µM
same,TGI,[7],> 100 µM
same,TGI,[8],> 100 µM
same,TGI,[9],> 100 µM
same,TGI,[10],> 100 µM
O=C(/C=C/c1ccsc1)c1ccc(Cl)s1,TGI,[1],> 100 µM
same,TGI,[2],60.5 µM
same,TGI,[3],57.2 µM
same,TGI,[4],> 100 µM
same,TGI,[5],> 100 µM
same,TGI,[7],> 100 µM
same,TGI,[8],> 100 µM
same,TGI,[9],> 100 µM
same,TGI,[10],> 100 µM
CC(C(O)c1ccccc1)[N+](=O)[O-] (configuration not stated),TGI,[1],80 µM
same,TGI,[2],> 100 µM
same,TGI,[3],44.6 µM
same,TGI,[4],71.8 µM
same,TGI,[5],> 100 µM
same,TGI,[6],22.9 µM
same,TGI,[7],95.5 µM
same,TGI,[8],39.1 µM
same,TGI,[9],> 100 µM
same,TGI,[10],20.6 µM

# From PubChem BioAssay (NCI)
